From US8642630B2, “Endogeneous repair factor production accelerators” (Ono Pharmaceutical Co., Ltd., priority 2002, dated 2014)

Experiments:
[1] = system: rat leg ischemia (arteriosclerosis obliterans (ASO)) model; test: Rat leg ischemia (ASO) model; usefulness of topical administration, Example 6; assay type: in vivo; settings: 0.1 mg, intramuscular administration into the ischemic left femoral part
Experimental: (§1) Leg ischemia model was prepared by ligating rat left femoral artery. Blood flow in hind legs was measured by using Laser Doppler Imager (Moor Instruments) 1 week after the preparation, and the animals were divided into 4 groups (n=5) in such a manner that the average value of blood flow became almost uniform.
(§2) Starting on the next day of the grouping, 0.1 ml/site, 2 sites, of the agent to be tested was administered by intramuscular injection into ischemic regions of the left femoral adductor (polymer group, Compound 1 group, Compound 1 MS group) and normal region of the right shoulder upper arm (Compound 1 MS group), for once a week, 4 times in total as a solution to be tested. One week after completion of the final administration, blood flows of hind legs were measured by using Laser Doppler Imager (Moor Instruments), and blood flows of the treated leg (left leg) and untreated leg (right leg) were compared and examined.
(§3) • The polylactic acid-glycolic acid copolymer used in Preparation Example 2 was suspended in 0.2 w/v % Tween 80 solution (0.2 ml). In this connection, amount of the polylactic acid-glycolic acid copolymer is identical to the amount contained in Compound 1 MS (1 mg). Compound 1 (0.1 mg) Group: • Compound 1 (0.1 mg) was suspended in 0.2 w/v % Tween 80 solution (0.2 ml). […]

[2] = system: rat leg ischemia (arteriosclerosis obliterans (ASO)) model; test: Angiogenesis test using rat leg ischemia (ASO) model, Example 4; assay type: in vivo
Experimental: as §1, with “2 weeks” for “1 week”, “6” for “4”
as §2, with “into” for “into ischemic regions of”, “adductor,” for “adductor (polymer group, Compound 1 group, Compound 1 MS group) and normal region of the right shoulder upper arm (Compound 1 MS group),”
In this connection, construction of the solution to be tested is as follows. Solvent (control) group: 0.2 w/v % Tween 80 solution (0.2 ml).
as §3, with “contained in the Compound 1” for “contained in Compound 1”, “Compound 1 (1 mg) Group:” for “Compound 1 (0.1 mg) Group:”, “Compound 1 (1 mg) was” for “Compound 1 (0.1 mg) was”

O=C(O)COc1cccc2c1CCC=C2CCO/N=C(\c1ccccc1)c1cccnc1 [Compound 1, (E)-[5-[2-[1-phenyl-1-(3-pyridyl)methylideneaminoxy]ethyl]-7,8-dihydronaphthalen-1-yloxy]acetic acid]
increase in the blood flow, in words [1]: significant blood flow increasing action was not observed | Treated leg/untreated leg blood flow ratio ([1]; once a week x4, 1 week after final administration): 60.5 ± 3.1% | Treated leg/untreated leg blood flow ratio ([2]; 1 mg as Compound 1, i.m. left femoral adductor once a week x4, 1 week after final administration): 76.2 ± 2.8 % | blood flow improving effect, in words ([2]; 1 mg, i.m. once a week x4, vs Control / polymer group): significant recovery of blood flow against Control
